{
  "source": "patent US20140336463A1",
  "about": "“Rhinotopic therapy for the treatment of chronic rhinosinusitis biofilm disruption, treatment of mucosal granulation and sinus polyps” (priority 2009, published 2014)",
  "key": {"[1]": {"details": "prolonged intravenous use; cited from earlier work"}, "[2]": {"tested_on": "patients with refractory CRS", "experiment": "Part I prospective study, Rhinotopic therapy spray: Lund-Kennedy scores, clinical course, side effects", "type": "in vivo", "from_the_text": "The first part is a prospective study that includes 20 patients with refractory CRS, treated in with Rhinotopic therapy spray at a tertiary rhinology fellowship-training program. The patients were placed on the rhinotopic protocol only after they failed extended standard medical therapy. The latter is defined, for the purpose of this study, as three or more repeated courses of different oral antibiotics along with nasal corticosteroids sprays and nasal saline rinses (each lasting at least 3 weeks), within a 6 month-period, along with oral corticosteroids when indicated (in case of significant polyposis or Samter's triad). Patients who failed extended medical therapy were given the option of revision sinus surgery or rhinotopic therapy; all 20 patients chose rhinotopic therapy and were consented accordingly. […]\nCT scans were reviewed prior to treatment and evaluated following the Lund-Mackay radiologic scoring system (9). Clinical response to treatment was monitored using the Lund-Kennedy (LK) symptoms score and the LK endoscopic appearance score (9). […] The LK symptoms score evaluated nasal congestion and obstruction, headache, facial pain, alteration I the sense of smell, nasal discharge, and sneezing. The LK endoscopic appearance score evaluated the presence or absence of nasal polyps, edema, discharge, scarring, and crusting on each side of the nasal cavity. […]"}},
  "data": [
    {"smiles": "CN[C@H](CC(C)C)C(=O)N[C@H]1C(=O)N[C@@H](CC(N)=O)C(=O)N[C@H]2C(=O)N[C@H]3C(=O)N[C@H](C(=O)N[C@H](C(=O)O)c4cc(O)cc(O)c4-c4cc3ccc4O)[C@H](O)c3ccc(c(Cl)c3)Oc3cc2cc(c3O[C@@H]2O[C@H](CO)[C@@H](O)[C@H](O)[C@H]2O[C@H]2C[C@](C)(N)[C@H](O)[C@H](C)O2)Oc2ccc(cc2Cl)[C@H]1O", "note": "[Vancomycin]", "values": [
      {"measurement": "side effects", "setting": "[1]", "value": "toxicity to the kidneys and the inner ear"},
      {"measurement": "patients who developed an allergic reaction (skin rash over the upper lip)", "setting": "[2]; nebulized, stopped the treatment and dropped out", "value": "One"}
    ]},
    {"smiles": "CC(C)(O/N=C(\\C(=O)N[C@@H]1C(=O)N2C(C(=O)[O-])=C(C[n+]3ccccc3)CS[C@H]12)c1csc(N)n1)C(=O)O", "note": "[ceftazidine]", "values": [
      {"measurement": "clinical response", "setting": "[2]; intravenous, one patient, before the rhinotopic protocol", "value": "improved transiently but their symptoms recurred"}
    ]}
  ]
}
